{"source": "the METLIN SMRT retention time set (Domingo-Almenara et al. 2019)"}
{"test": "gradient 5% acetonitrile 3 min, to 50% in 2 min, to 85% in 15 min, held 3 min, 100 µL/min", "details": "column: Zorbax Extend-C18 2.1 x 50 mm; eluents: water / acetonitrile, 0.1% formic acid", "outline": "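Retention time was recorded from adduct peaks, which were picked computationally and each inspected manually. Pure standards ran in mixtures of ~100 molecules on HPLC coupled to a quadrupole time-of-flight mass spectrometer, in positive and negative ionization mode, through a Zorbax Extend-C18 column (2.1 × 50 mm, 1.8 μm) at 100 μL/min. Eluents were water and acetonitrile, each with 0.1% formic acid.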", "units": {"RP-LC retention time": "s"}}
{"molecule": "COc1cc(C(=O)N2CCC(c3nc4cccnc4n3C)C2)ccc1C", "note": "(centres undefined)", "RP-LC retention time": 683}
{"molecule": "CN(C)CCNC(=O)c1ccnc(-c2ccsc2)c1", "RP-LC retention time": 573}
{"molecule": "Cc1cccc(NC(=O)C2CCCN(S(=O)(=O)c3cn(C(C)C)cn3)C2)c1C", "note": "(centres undefined)", "RP-LC retention time": 878}
{"molecule": "Cc1ccc(Cn2c(=O)c(N3CCN(C(=O)Nc4ccc5c(c4)OCO5)CC3)nc3cccnc32)cc1", "RP-LC retention time": 1070}
{"molecule": "CC(=C/c1ccccc1)/C=C1/NC(=S)NC1=O", "RP-LC retention time": 880}
{"molecule": "O=C(C1CC1)N1CCC(c2noc(-c3cccnc3)n2)C1", "note": "(centres undefined)", "RP-LC retention time": 631}
{"molecule": "Cc1sc2c(c1C)C(c1ccc(Cl)cc1)=N[C@@H](CC(=O)Nc1ccc(O)cc1)c1nnc(C)n1-2", "RP-LC retention time": 922}
{"molecule": "O=C1COc2cc(S(=O)(=O)N3CCC(C(=O)NCC4CCCO4)CC3)c(Cl)cc2N1", "note": "(centres undefined)", "RP-LC retention time": 653}
{"molecule": "CC1=C(C(=O)N2CCOCC2)C(c2ccc(Cl)cc2)C2=C(CC(C)(C)CC2=O)N1", "note": "(centres undefined)", "RP-LC retention time": 710}
{"molecule": "Cc1ccc(N2C(=O)CN(S(C)(=O)=O)CC2(C)C(=O)NCc2ccccc2)c(C)c1", "note": "(centres undefined)", "RP-LC retention time": 838}
{"molecule": "O=C(NCCc1cccs1)c1cccc2[nH]cc(CN3CCOCC3)c12", "RP-LC retention time": 592}
{"molecule": "O=C(c1cccc(C(F)(F)F)c1)N1CCN(c2nc(CN3CCCCC3)cs2)CC1", "RP-LC retention time": 684}
{"molecule": "O=C(NCc1noc(-c2ccc(F)cc2)n1)C1CCC1", "RP-LC retention time": 774}
{"molecule": "Cc1ccc(-c2ncc(C(=O)N3CC=C(c4ccccc4)CC3)c(-c3ccncc3)n2)cc1", "RP-LC retention time": 1110}
{"molecule": "CC1(C(=O)NCc2ccc(F)cc2)Cn2cnc(C(=O)NC3CCCCCC3)c2C(=O)N1C1CC1", "note": "(centres undefined)", "RP-LC retention time": 823}
{"molecule": "O=C(CCCn1c(=O)c2cccn2c2ccc(Br)cc21)NCc1ccco1", "RP-LC retention time": 864}
{"molecule": "COc1ccc(N2C(=O)CN(C(C)c3ccccc3)[C@H]3CS(=O)(=O)C[C@H]32)cc1", "note": "(some centres undefined)", "RP-LC retention time": 808}
{"molecule": "O=C(COc1ccccc1F)NCC1(c2cccs2)CCOCC1", "RP-LC retention time": 790}
{"molecule": "O=C(NC1CC1)c1c2c(nc3ccccc13)CCCC2", "RP-LC retention time": 585}
{"molecule": "CCOC(=O)c1ccccc1NC(=O)Cn1c(=O)n(-c2cccc(C)c2)c(=O)c2c1cc(C)n2C", "RP-LC retention time": 966}
{"molecule": "Cc1oc(-c2cccc(Cl)c2)nc1Cn1nnc(-c2nc(-c3cccc(F)c3)no2)c1C", "RP-LC retention time": 1360}
{"molecule": "CC(CCc1ccccc1)NC(=O)C1CCN(S(C)(=O)=O)c2cc(Cl)ccc2O1", "note": "(centres undefined)", "RP-LC retention time": 1070}
{"molecule": "CCOCCOC1CCN(C(=O)c2sccc2C)CC1", "RP-LC retention time": 741}
{"molecule": "CC1CCN(Cc2nc3cc(NC(=O)c4ccco4)ccc3n2C(C)C)CC1", "RP-LC retention time": 643}
{"molecule": "O=C(NC1CC1)c1ccc(N2CCC(NCc3cc(F)ccc3O)C2)nc1", "note": "(centres undefined)", "RP-LC retention time": 544}
{"molecule": "Cc1ccc(-c2nc(Nc3ccccc3F)sc2CC(=O)O)cc1", "RP-LC retention time": 960}
{"molecule": "Fc1ccc(Cn2cc(-c3noc(-c4ccc5c(c4)OCO5)n3)nn2)cc1", "RP-LC retention time": 937}
{"molecule": "CC(Cc1ccccc1)(NC(=O)CN)c1ccccc1", "note": "(centres undefined)", "RP-LC retention time": 730}
{"molecule": "CCc1cc(C(=O)Nc2ccc(F)cc2C)nc2ccnn12", "RP-LC retention time": 1140}
{"molecule": "Cc1ccc(-n2c(=O)c3sccc3n(Cc3nc(-c4cccc(C(F)(F)F)c4)no3)c2=O)cc1", "RP-LC retention time": 1100}
{"molecule": "COC(=O)c1ncn2c1C(=O)N(CCc1ccccc1)C(C)(C(=O)NC1CCCC1)C2", "note": "(centres undefined)", "RP-LC retention time": 738}
{"molecule": "O=C1N=C2C(=Nc3ccccc32)C(=O)N1CCN1CCN(c2ccccc2Cl)CC1", "RP-LC retention time": 743}
{"molecule": "COc1ccc(OC)c(CN2CCc3nc(N4CCOCC4)ncc3C2)c1", "RP-LC retention time": 607}
{"molecule": "Cc1cc(C(=O)N2CCC(N3CCCCC3)CC2)c2cc(Br)ccc2n1", "RP-LC retention time": 586}
{"molecule": "COc1ccc(Cc2nc3nccc(-c4cc(OC)c(OC)c(OC)c4)n3n2)cc1", "RP-LC retention time": 860}
{"molecule": "CCN1C(=O)c2ccccc2Sc2cc(-c3noc(CNC(=O)c4cccs4)n3)ccc21", "RP-LC retention time": 917}
{"molecule": "c1ccc(-c2nc(-c3ccnc(N4CCCC4)c3)no2)nc1", "RP-LC retention time": 594}
{"molecule": "CCCN1CCN(Cc2nc3nc(C)cc(N4CCCCCC4)n3n2)CC1", "RP-LC retention time": 587}
{"molecule": "CCSc1ccccc1C(=O)N1CCN(c2ccc(-c3ccccn3)nn2)CC1", "RP-LC retention time": 649}
{"molecule": "COCCCN1CN=C(Nc2nc(C)c3ccccc3n2)NC1", "RP-LC retention time": 626}
{"molecule": "Cc1ccc(Cn2cc(-c3noc(-c4ccc5c(c4)OCO5)n3)nn2)cc1", "RP-LC retention time": 1020}
{"molecule": "Cc1ccc(NC(=O)Cn2nnc(C(=O)NCc3cccs3)c2N)cc1", "RP-LC retention time": 593}
{"molecule": "Cc1ccc(S(=O)(=O)N2CCC(n3c(-c4ccoc4)nc4cccnc43)C2)cc1Cl", "note": "(centres undefined)", "RP-LC retention time": 986}
{"molecule": "CCCCOc1ccc(-c2ccc(=O)n(Cc3nc(-c4cc(OC)c(OC)c(OC)c4)no3)n2)cc1", "RP-LC retention time": 1200}
{"molecule": "COc1ccc(SCCCC(=O)NCc2ccccc2)cc1", "RP-LC retention time": 849}
{"molecule": "O=C1CCCc2cc(S(=O)(=O)NCCN3CCN(c4ccccc4)CC3)ccc2N1", "RP-LC retention time": 621}
{"molecule": "Cc1ccc(OCC(=O)N(Cc2ccc(N(C)C)cc2)C2CCS(=O)(=O)C2)cc1C", "note": "(centres undefined)", "RP-LC retention time": 774}
{"molecule": "Cc1sc2ccn(C)c(=O)c2c1C(=O)N1CCN(c2ccccn2)CC1", "RP-LC retention time": 564}
{"molecule": "Cc1cc(-c2nnc(C3CC3)o2)c(C)n1CC(=O)NCc1ccc(F)c(Cl)c1", "RP-LC retention time": 848}
{"molecule": "CCN1C(=O)COc2ccc(-c3nc(NC(=O)c4ccco4)sc3C)cc21", "RP-LC retention time": 883}
{"molecule": "Cc1ccc(NC(=O)Cn2nc3cc(-c4ccccc4)nc(C)n3c2=O)cc1F", "RP-LC retention time": 976}
{"molecule": "Cc1cc(NC(=O)C(C)n2nc(-c3ccc(F)cc3)ccc2=O)on1", "note": "(centres undefined)", "RP-LC retention time": 735}
{"molecule": "Cc1ccc(C(=O)N2CCCCC2c2nc(-c3cccnc3)no2)cn1", "note": "(centres undefined)", "RP-LC retention time": 641}
{"molecule": "COc1cccc(N2CCN(S(=O)(=O)c3cc(-c4cc(C(F)(F)F)[nH]n4)sc3C)CC2)c1", "RP-LC retention time": 1120}
{"molecule": "O=C([C@@H]1C[C@H](Oc2ccccc2)CN1C(=O)CCCc1c[nH]c2ccccc12)N1CCCC1", "RP-LC retention time": 865}
{"molecule": "CCc1nc2cc(N3CCC(C(=O)NCc4ccc(F)cc4)CC3)cnc2nc1CC", "RP-LC retention time": 851}
{"molecule": "CN(C)c1ccccc1CN1CCCN(Cc2ccccc2N(C)C)C1c1ccncc1", "RP-LC retention time": 711}
{"molecule": "Brc1ccc(-c2ccc(CNCC3CCCO3)o2)cc1", "note": "(centres undefined)", "RP-LC retention time": 703}
{"molecule": "CCCNC(=O)c1nc(-c2ccc3c(c2)OCC(=O)N3CC)no1", "RP-LC retention time": 821}
{"molecule": "O=C(C1CC(=O)N(C2CCCC2)C1)N1CCC(c2c[nH]c3ccccc23)(c2c[nH]c3ccccc23)CC1", "note": "(centres undefined)", "RP-LC retention time": 850}
{"molecule": "CC1(C(=O)NCc2ccccc2)CN(S(C)(=O)=O)CC(=O)N1c1ccccc1F", "note": "(centres undefined)", "RP-LC retention time": 773}
{"molecule": "Nc1ncc2c(n1)CC(c1ccco1)CC2=O", "note": "(centres undefined)", "RP-LC retention time": 676}
{"molecule": "CCN1C(=O)c2cc(S(=O)(=O)NCc3cccc(Cl)c3)ccc2Oc2cccnc21", "RP-LC retention time": 1030}
{"molecule": "Cc1cc(-c2nnc(-c3ccc(F)cc3)o2)c(C)n1CC(=O)N1CCCC1", "RP-LC retention time": 808}
{"molecule": "CC1CN(C(=O)c2ccc(C#N)cc2)c2ccccc2O1", "note": "(centres undefined)", "RP-LC retention time": 914}
{"molecule": "O=C(/C=C/C(=O)N1CCc2ccccc2C1)N1CCc2ccccc2C1", "RP-LC retention time": 888}
{"molecule": "Cc1nn(-c2ccc(N3CCCCC3)nn2)c(C)c1CCC(=O)NCc1ccco1", "RP-LC retention time": 667}
{"molecule": "CCn1cnc2ccc(C(=O)NC(C)C)cc2c1=O", "RP-LC retention time": 628}
{"molecule": "COC(=O)c1cc(C(=O)OC)cc(-n2ccc3nc(C)c(C(=O)OC)cc3c2=O)c1", "RP-LC retention time": 844}
{"molecule": "CCN(C(=O)C1CCN(C(=O)c2ccc(F)cc2)CC1)C1CCCCC1", "RP-LC retention time": 885}
{"molecule": "CCN1C(=O)c2cccnc2Sc2cc(NC(=O)c3cccnc3)ccc21", "RP-LC retention time": 637}
{"molecule": "CC(=O)c1ccc(N2CCN(c3ccc(NC(=O)C4CCC4)c(C(=O)O)c3)CC2)cc1", "RP-LC retention time": 853}
{"molecule": "Cc1cccc(Nc2ccc(N3CCN(C(=O)c4ccc(Br)o4)CC3)nn2)n1", "RP-LC retention time": 578}
{"molecule": "CCN(C(=O)c1cc2c(s1)N(CC1CC1)CCCC2)C(C)C", "RP-LC retention time": 1260}
{"molecule": "CCC(=O)N1CCc2cc(N3CC(C(=O)NCc4ccccc4C)CC3=O)ccc21", "note": "(centres undefined)", "RP-LC retention time": 750}
{"molecule": "Cc1nc(OCC(=O)Nc2ccc(F)c(Cl)c2)c2ccccc2n1", "RP-LC retention time": 782}
{"molecule": "O=C(NC1CCCCC1)C1CCN(Cc2cc3ccccc3n2Cc2cccc(Cl)c2)CC1", "RP-LC retention time": 847}
{"molecule": "Cc1nc(Nc2ccc(Br)cn2)sc1C(=O)N1CCN(C)CC1", "RP-LC retention time": 606}
{"molecule": "Fc1ccc(F)c(CNc2nnc(-c3nc(C4CC4)no3)c3ccccc23)c1", "RP-LC retention time": 672}
{"molecule": "O=c1c(S(=O)(=O)N2CCCCCC2)cccn1Cc1cccc(F)c1", "RP-LC retention time": 946}
{"molecule": "O=C(NCCC1=CCCCC1)C(=O)Nc1ccc(Cl)cn1", "RP-LC retention time": 1050}
{"molecule": "O=C(CCc1c(-c2ccc(F)cc2)nc2ccccn12)NCc1cccc(F)c1", "RP-LC retention time": 645}
{"molecule": "CC(C)c1nc(N2CCCC2=O)sc1C(=O)NCc1ccc(N(C)C)cc1", "RP-LC retention time": 675}
{"molecule": "COCCc1noc(-c2ccc(=O)n(CC(=O)Nc3cc(F)ccc3C)c2)n1", "RP-LC retention time": 704}
{"molecule": "CCn1ccc(C(=O)N2CCC3(CC2)NCc2ccccc2-n2ccnc23)n1", "RP-LC retention time": 579}
{"molecule": "O=C(CSc1cc(N2CCCCC2)ncn1)Nc1cccc(C(F)(F)F)c1", "RP-LC retention time": 1020}
{"molecule": "Cc1ccc(C(=O)N2CCc3[nH]cnc3C23CCCCC3)s1", "RP-LC retention time": 606}
{"molecule": "O=c1c2nc(-c3ccc(F)cc3F)cn2ccn1-c1cccc(Cl)c1", "RP-LC retention time": 949}
{"molecule": "Cc1c(C(=O)N2CCCC2)cnn1-c1ccc(-c2nc(C3CC3)no2)cn1", "RP-LC retention time": 877}
